According to patent US8946266B2, “Substituted triazole and imidazole derivatives as gamma secretase modulators” (Janssen Pharmaceuticals, Inc., priority 2009, dated 2015):

Experiments:
Aβ42 [1] = test: γ-secretase-modulating activity, Method 1: Aβ42 sandwich ELISA in supernatant of SKNBE2 cells carrying APP 695-wild type (Table 3a); type: cell-based; conditions: 18 h, averaged IC50 values
Description: (§1) Pharmacology A) Screening of the Compounds of the Invention for γ-Secretase-Modulating Activity A1) Method 1
(§2) Screening was carried out using SKNBE2 cells carrying the APP 695-wild type, grown in Dulbecco's Modified Eagle's Medium/Nutrient mixture F-12 (DMEM/NUT-mix F-12) (HAM) provided by Gibco (cat no. 31330-38) containing 5% Serum/Fe supplemented with 1% non-essential amino acids. Cells were grown to near confluency.
(§3) The screening was performed using the assay as described in Citron et al (1997) Nature Medicine 3: 67. Briefly, cells were plated in a 96-well plate at about 10^5 cells/ml one day prior to addition of compounds. Compounds were added to the cells in Ultraculture (Lonza, BE12-725F) supplemented with 1% glutamine (Invitrogen, 25030-024) for 18 h. The media were assayed by two sandwich ELISAs, for Aβ42 and Aβtotal. Toxicity of the compounds was assayed by WST-1 cell proliferation reagent (Roche, 1 644 807) according to the manufacturer's protocol.
To quantify the amount of Aβ42 in the cell supernatant, commercially available Enzyme-Linked-Immunosorbent-Assay (ELISA) kits were used (Innotest® β-Amyloid(1-42), Innogenetics N.V., Ghent, Belgium). The Aβ42 ELISA was performed essentially according to the manufacturer's protocol. Briefly, the standards (dilutions of synthetic Aβ1-42) were prepared in polypropylene Eppendorf with final concentrations of 8000 down to 3.9 pg/ml (1/2 dilution step). Samples, standards and blanks (100 μl) were added to the anti-Aβ42-coated plate supplied with the kit (the capture antibody selectively recognizes the C-terminal end of the antigen). The plate was allowed to incubate 3 h at 25° C. in order to allow formation of the antibody-amyloid complex. Following this incubation and subsequent wash steps a selective anti-Aβ-antibody conjugate (biotinylated 3D6) was added and incubated for a minimum of 1 hour (h) in order to allow formation of the antibody-Amyloid-antibody-complex. After incubation and appropriate wash steps, a Streptavidine-Peroxidase-Conjugate was added, followed 30 minutes later by an addition of 3,3′,5,5′-tetramethylbenzidine (TMB)/peroxide mixture, resulting in the conversion of the substrate into a coloured product. This reaction was stopped by the addition of sulfuric acid (0.9 N) and the colour intensity was measured by means of photometry with an ELISA-reader with a 450 nm filter.
To obtain the values reported in Table 3a, the data were calculated as percentage of the maximum amount of amyloid Beta 42 measured in the absence of the test compound. The sigmoidal dose response curves were analyzed using non-linear regression analysis with percentage of the control plotted against the log concentration of the compound. A 4-parameter equation was used to determine the IC50. The values reported in Table 3a are averaged IC50 values.

Aβtotal [2] = test: γ-secretase-modulating activity, Method 1: Aβtotal sandwich ELISA in supernatant of SKNBE2 cells carrying APP 695-wild type; type: cell-based; conditions: Table 3a, 18 h, averaged IC50 values
Description: as §1, §2, §3
To quantify the amount of Aβtotal in the cell supernatant, samples and standards were added to a 6E10-coated plate. The plate was allowed to incubate overnight at 4° C. in order to allow formation of the antibody-amyloid complex. Following this incubation and subsequent wash steps a selective anti-Aβ-antibody conjugate (biotinylated 4G8) was added and incubated for a minimum of 1 h in order to allow formation of the antibody-Amyloid-antibody-complex. After incubation and appropriate wash steps, a Streptavidine-Peroxidase-Conjugate was added, followed 30 minutes later by an addition of Quanta Blu fluorogenic peroxidase substrate according to the manufacturer's instructions (Pierce Corp., Rockford, Ill.).

Aβ42 [3] = test: γ-secretase-modulating activity, Method 2: Aβ42 Alphalisa in supernatant of SKNBE2 cells carrying APP 695-wild type (Table 3b); type: cell-based; conditions: overnight
Procedure, shortened: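 Aβ42 in the supernatant was quantified by AlphaLISA sandwich (JRF/cAβ42/26 with JRF/AβN/25). Cells were wild-type APP695 SKNBE2, exposed to compound overnight at 37° C., 5% CO2. Data were normalised to untreated maximum and fitted with a four-parameter curve to give IC50.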

Aβtotal [4] = test: γ-secretase-modulating activity, Method 2: Aβtotal Alphalisa in supernatant of SKNBE2 cells carrying APP 695-wild type (Table 3b); type: cell-based; conditions: overnight, read-out: IC50 Aβtot
Procedure, shortened: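 Secreted Aβtotal was quantified by AlphaLISA pairing an N-terminal antibody (JRF/AβN/25) with biotinylated mid-region 4G8. Wild-type APP 695 SKNBE2 cells received serially varied compound overnight at 37 °C; IC50 came from a 4-parameter nonlinear regression of percent of control against log dose.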

Aβ42 [5] = test: In vivo efficacy, Method 1: brain soluble Aβ42 lowering 4 h after a single oral dose, ELISA (Table 4a); set-up: species or system mouse; conditions: dose 30 mg/kg oral dosing
Excerpt: (§4) To determine whether acute administration of an Aβ42 lowering agent would reduce Aβ42 levels in vivo, non-transgenic rodents, e.g. mice or rats were used. Alternatively, two to three month old Tg2576 mice expressing APP695 containing the “Swedish” variant can be used or a transgenic mouse model developed by Dr. Fred Van Leuven (K.U. Leuven, Belgium) and co-workers, with neuron-specific expression of a clinical mutant of the human amyloid precursor protein [V717I] (Moechars et al., 1999 J. Biol. Chem. 274, 6483). Young transgenic mice have high levels of Aβ in the brain but no detectable Aβ deposition. At approximately 6-8 months of age, the transgenic mice start to display spontaneous, progressive accumulation of β-amyloid (Aβ) in the brain, eventually resulting in amyloid plaques within the subiculum, hippocampus and cortex. Animals treated with the Aβ42 lowering agent were examined and compared to those untreated or treated with vehicle and brain levels of soluble Aβ42 and total Aβ would be quantitated by standard techniques, for example, using ELISA. Treatment periods varied from hours (h) to days and were adjusted based on the results of the Aβ42 lowering once a time course of onset of effect could be established.
(§5) A typical protocol for measuring Aβ42 lowering in vivo is shown but it is only one of many variations that could be used to optimize the levels of detectable Aβ. For example, Aβ42 lowering compounds were formulated in 20% of Captisol® (a sulfobutyl ether of β-cyclodextrin) in water or 20% hydroxypropyl cyclodextrin. The Aβ42 lowering agents were administered as a single oral dose or by any acceptable route of administration to overnight fasted animals. After 4 h, the animals were sacrificed and Aβ42 levels were analysed.
(§6) Blood was collected by decapitation and exsanguinations in EDTA-treated collection tubes. Blood was centrifuged at 1900 g for 10 minutes (min) at 4° C. and the plasma recovered and flash frozen for later analysis. The brain was removed from the cranium and hindbrain. The cerebellum was removed and the left and right hemisphere were separated. The left hemisphere was stored at −18° C. for quantitative analysis of test compound levels. The right hemisphere was rinsed with phosphate-buffered saline (PBS) buffer and immediately frozen on dry ice and stored at −80° C. until homogenization for biochemical assays.
(§7) Mouse brains were resuspended in 10 volumes of 0.4% DEA (diethylamine)/50 mM NaCl pH 10 (for non-transgenic animals) or 0.1% 3-[(3-cholamidopropyl)-dimethyl-ammonio]-1-propanesulfonate (CHAPS) in tris buffered saline (TBS) (for transgenic animals) containing protease inhibitors (Roche-11873580001 or 04693159001) per gram of tissue, e.g. for 0.158 g brain, add 1.58 ml of 0.4% DEA. All samples were sonicated for 30 seconds on ice at 20% power output (pulse mode). Homogenates were centrifuged at 221.300×g for 50 min. The resulting high speed supernatants were then transferred to fresh tubes and were optionally further purified before the next step. A portion of the supernatant was neutralized with 10% 0.5 M Tris-HCl and this was used to quantify Aβtotal.
The obtained supernatants were purified with Water Oasis HLB reverse phase columns (Waters Corp., Milford, Mass.) to remove non-specific immunoreactive material from the brain lysates prior subsequent Aβ detection. Using a vacuum manifold, all solutions were passed through the columns at a rate of approximately 1 ml per min, so the vacuum pressure was adjusted accordingly throughout the procedure. Columns were preconditioned with 1 ml of 100% MeOH, before equilibration with 1 ml of H2O, Non-neutralized brain lysates were loaded onto the columns. The loaded samples were then washed twice with the first wash performed with 1 ml of 5% MeOH, and the second wash with 1 ml of 30% MeOH. Finally, the Aβ was eluted from the columns and into 100×30 mm glass tubes, with a solution of 90% MeOH with 2% NH4OH. […]

Aβtotal [6] = test: In vivo efficacy, Method 1: brain soluble Aβtotal lowering 4 h after a single oral dose, ELISA (Table 4a); set-up: species or system mouse; conditions: dose 30 mg/kg oral dosing
Excerpt: as §4, §5, §6, §7
To quantify the amount of Aβ42 in the soluble fraction of the brain homogenates, commercially available Enzyme-Linked-Immunosorbent-Assay (ELISA) kits were used (e.g. Innotest® β-Amyloid(1-42), Innogenetics N.V., Ghent, Belgium). The Aβ42 ELISA was performed using the plate provided with the kit only. Briefly, the standards (a dilution of synthetic Aβ1-42) were prepared in 1.5 ml Eppendorf tube in Ultraculture, with final concentrations ranging from 25000 to 1.5 pg/ml. Samples, standards and blanks (60 μl) were added to the anti-Aβ42-coated plate (the capture antibody selectively recognizes the C-terminal end of the antigen). The plate was allowed to incubate overnight at 4° C. in order to allow formation of the antibody-amyloid complex. […]

Compound | IC50 (Aβ42 [1]; Homo sapiens) | IC50 (Aβtotal [2]; Homo sapiens) | IC50 (Aβ42 [3]; Homo sapiens) | IC50 (Aβtotal [4]; Homo sapiens) | melting point | IC50 (Aβ42 [1]) | IC50 (Aβtotal [2]) | IC50 (Aβ42 [3]) | IC50 (Aβtotal [4]) | Aβ42 (% Ctrl) _Mean (Aβ42 [5]) | Aβtotal (% Ctrl) _Mean (Aβtotal [6])
COc1cc(-c2nc(C)n(-c3ccc(F)cc3)n2)ccc1-n1cnc(C)c1 [Compound 3] | 490 nM | > 3000 nM | 417 nM | > 10 µM | 157.3 °C |  |  |  |  |  | 
COc1cc(-c2nc(C)c(-c3cccc(C(F)(F)F)c3)[nH]2)ccc1-n1cnc(C)c1 [Compound 12] | 90 nM | > 3000 nM | 33 nM | 3.63 µM |  |  |  |  |  |  | 
COc1cc(-c2nc(C)c(-c3cccc(C(F)(F)F)c3)n2C)ccc1-n1cnc(C)c1 [Compound 13] |  |  |  |  |  | 1050 nM | > 3000 nM | 724 nM | > 10 µM |  | 
COc1cc(-c2nc(-c3cccc(C(F)(F)F)c3)c(C)n2C)ccc1-n1cnc(C)c1 [Compound 14] |  |  |  |  |  | 500 nM | > 3000 nM | 282 nM | 5.25 µM |  | 
Cc1cn(-c2ccc(-c3nc(Nc4cccc(C(F)(F)F)c4)n[nH]3)cn2)cn1 [Compound 24] | 1450 nM | > 3000 nM | 1050 nM | 6.61 µM |  |  |  |  |  |  | 
COc1cc(-c2nc(C)c(C)[nH]2)ccc1-n1cnc(C)c1 [Compound 25] |  |  |  |  |  | 2510 nM | > 3000 nM | 6460 nM | > 10 µM |  | 
COc1cc(-c2nc(CC(C)C)c(C)[nH]2)ccc1-n1cnc(C)c1 [Compound 26] |  |  |  |  |  | 760 nM | > 3000 nM |  |  |  | 
COc1cc(-n2cnc(C)c2)ccc1-c1nc(-c2ccccc2)c(C)[nH]1 [Compound 27] |  |  |  |  |  | 170 nM | > 10000 nM | < 3000 nM | > 3 µM |  | 
COc1cc(-c2nc(-c3ccccc3)c(C)[nH]2)ccc1-n1cnc(C)n1 [Compound 28] |  |  |  |  |  | > 3000 nM | > 3000 nM | > 3000 nM | > 3 µM |  | 

More lines, main results first:

IC50 (Aβ42 [1]; Homo sapiens) | IC50 (Aβtotal [2]; Homo sapiens) | IC50 (Aβ42 [3]; Homo sapiens) | IC50 (Aβtotal [4]; Homo sapiens) | melting point | IC50 (Aβ42 [1]) | IC50 (Aβtotal [2]) | IC50 (Aβ42 [3]) | IC50 (Aβtotal [4]) | Compound | Aβ42 (% Ctrl) _Mean (Aβ42 [5]) | Aβtotal (% Ctrl) _Mean (Aβtotal [6])
 |  |  |  |  | 190 nM | > 3000 nM | 170 nM | > 10 µM | CCCc1[nH]c(-c2ccc(-n3cnc(C)c3)c(OC)c2)nc1-c1ccccc1 [Compound 29] |  | 
 |  |  |  |  |  |  | 191 nM | 6.76 µM | COc1cc(-c2nc(C(C)C)n(-c3cccc(C(F)(F)F)c3)n2)ccc1-n1cnc(C)c1.Cl [Compound 32] | 6 % Ctrl | 2 % Ctrl
 |  | 105 nM | 7.94 µM |  |  |  |  |  | COc1cc(-c2nc(-c3cccc(C(F)(F)F)c3)n(C(C)C)n2)ccc1-n1cnc(C)c1 [Compound 39] | 17 % Ctrl | 0 % Ctrl
 |  |  |  |  |  |  | 135 nM | > 10 µM | COc1nc(-c2nc(-c3cccc(C(F)(F)F)c3)n(C(C)C)n2)ccc1-n1cnc(C)c1.Cl.Cl [Compound 68] | 29 % Ctrl | −3 % Ctrl
 |  | 537 nM | > 10 µM | 210.7 °C |  |  |  |  | COc1cc(-c2nc3cncc(-c4ccc(F)cc4C)n3n2)ccc1-n1cnc(C)c1 [Compound 295] |  | 
 |  |  |  |  | > 3000 nM | > 3000 nM | 8130 nM | > 10 µM | COc1cc(-c2nc(-c3ccccc3)c(C)[nH]2)ccc1-n1ncnc1C [Compound 299] |  | 
